Laboratory results: PubChem BioAssay (NCI)
“And” between values parts separate entries of the source, which are not always exact repeats. Identical values can stand only once.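 96-well plates; 48 h exposure; 5 concentrations. Endpoints by linear interpolation between flanking doses. Not reached: highest tested concentration assigned. GI50: concentration for 50% inhibition of growth. TGI marks complete inhibition of growth.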

What was measured:
Assay in all cases: growth of human tumour cells (NCI), 48 h
786-0 renal = tested on: 786-0 renal
A498 renal = tested on: A498 renal
DU-145 prostate = tested on: DU-145 prostate
HT29 colon = tested on: HT29 colon
MDA-MB-435 = tested on: MDA-MB-435
NCI-H23 lung = tested on: NCI-H23 lung
NCI-H460 lung = tested on: NCI-H460 lung
OVCAR-4 ovarian = tested on: OVCAR-4 ovarian
SK-OV-3 ovarian = tested on: SK-OV-3 ovarian
TK-10 renal = tested on: TK-10 renal

SMILES | GI50 (786-0 renal) | TGI (786-0 renal) | GI50 (A498 renal) | TGI (A498 renal) | GI50 (DU-145 prostate) | TGI (DU-145 prostate) | GI50 (HT29 colon) | TGI (HT29 colon) | GI50 (MDA-MB-435) | TGI (MDA-MB-435) | GI50 (NCI-H23 lung) | TGI (NCI-H23 lung) | GI50 (NCI-H460 lung) | TGI (NCI-H460 lung) | GI50 (OVCAR-4 ovarian) | TGI (OVCAR-4 ovarian) | GI50 (SK-OV-3 ovarian) | TGI (SK-OV-3 ovarian) | GI50 (TK-10 renal) | TGI (TK-10 renal)
O=c1cc(-c2ccccc2)oc2c1ccc1ccccc12 | 27900 nM | > 100000 nM | 11100 nM | 44100 nM | 30600 nM | > 100000 nM | 25600 nM | > 100000 nM | 30000 nM | > 100000 nM | 32600 nM | > 100000 nM | 28600 nM | > 100000 nM | 21200 nM | > 100000 nM | 19300 nM | 54100 nM | 28200 nM | 65000 nM
CC1(C)N=c2cc3c(cc2N1c1ccc(Cl)cc1)=Nc1ccccc1N3c1ccc(Cl)cc1 | 9660 nM | > 100000 nM | 8370 nM | > 100000 nM | 7450 nM | > 100000 nM | 7850 nM | > 100000 nM | 12100 nM | > 100000 nM | 3160 nM | 27900 nM | 4780 nM | > 100000 nM | 4330 nM | > 100000 nM | > 100000 nM | > 100000 nM | 3840 nM | 67000 nM
O=C1/C(=C/c2ccc(F)cc2)CN(C(=O)C(Cl)Cl)C/C1=C\c1ccc(F)cc1 | 213 nM | 499 nM | 404 nM | 1540 nM | 671 nM | 1740 nM | 181 nM | – | 212 nM | 486 nM | 259 nM | 774 nM | 294 nM | 878 nM | 321 nM | 1150 nM | 884 nM | 2200 nM | 670 nM | 1960 nM
CC(=O)Nc1ccc(OC(C)=O)cc1 | < 10 nM | 5520 nM | < 10 nM | 48.8 nM | < 10.5 nM | 17.2 nM | < 10 nM | 776 nM | < 10 nM | < 10 nM | < 10 nM | 60300 nM | < 10 nM | 16900 nM | < 10 nM | > 91700 nM | < 10 nM | – | 10700 nM | > 100000 nM
CC[C@]12C=CCN3CC[C@@]4(c5ccc(OC)cc5N(C)[C@H]4[C@@](O)(C(=O)OC)[C@@H]1OC(=O)CCC(=O)O[C@H]1CC[C@H]4[C@@H]5CC[C@H]6CC(=O)CC[C@]6(C)[C@H]5CC[C@]14C)[C@@H]32 | 1970 nM | > 100000 nM | 4130 nM | 30800 nM | 3660 nM | 61200 nM | 2130 nM | 6060 nM | 2890 nM | > 100000 nM | 3540 nM | > 100000 nM | 2760 nM | 10600 nM | 2580 nM | > 100000 nM | 2890 nM | 9550 nM | 2550 nM | 17800 nM
COc1ccc2nc3c(cc2c1)C(=O)CC(c1ccccc1)C3 (stereo not given) | 2230 nM | > 100000 nM | 215 nM | 1180 nM | 595 nM | > 58100 nM | 439 nM | > 100000 nM | 137 nM | 380 nM | 5400 nM | > 100000 nM | 1440 nM | > 100000 nM | > 100000 nM | > 100000 nM | 2090 nM | > 100000 nM | > 100000 nM | > 100000 nM
CCOC(=O)c1c2c(n3ccc(NC(=O)CCN4CCCCC4)cc13)C(=O)c1ncccc1C2=O | 124 nM | 2320 nM | 806 nM | 29000 nM | 1200 nM | 2540 nM | 1300 nM | 3100 nM | 1160 nM | 2470 nM | 36.9 nM | 2030 nM | < 10 nM | 443 nM | 1420 nM | 3560 nM | 95.3 nM | 18700 nM | 171 nM | 2250 nM
CC1(C)CCc2c(c(N=Nc3ccccc3F)c3ccccc3c2O)O1 | 26100 nM | 60300 nM | 25900 nM | > 100000 nM | 87500 nM | > 100000 nM | – | – | > 100000 nM | > 100000 nM | 16800 nM | 58600 nM | 38300 nM | > 100000 nM | 66200 nM | > 100000 nM | 25700 nM | 75900 nM | 68200 nM | > 100000 nM
CC[C@H]1CCC/C=C/[C@@H]2C[C@H](O)C[C@H]2[C@H](O)/C=C/C(=O)O1 | 20.4 nM | 42 nM | 17.4 nM | 59.6 nM | 179 nM | > 100000 nM | 26.4 nM | 405 nM | 43.4 nM | > 100000 nM | 41.4 nM | 5230 nM | 107 nM | > 100000 nM | 36.1 nM | – | 47.6 nM | – | 35.5 nM | 568 nM
CN[C@@H](Cc1cccc2ccccc12)C(=O)N[C@@H](CC(C)C)B(O)O | 37 nM | 180 nM and 67.1 nM | 5.53 nM | 45.2 nM | 51.5 nM | 219 nM and 315 nM | – | 25 nM | 4.25 nM | 14.7 nM | 16 nM | 38.7 nM and < 11.4 nM | 26.6 nM | 105 nM and 55.1 nM | 23.9 nM | – | 94.4 nM | > 100000 nM | 25.6 nM | 82.1 nM
O=S(=O)(O)n1ccnc1 (tested in a mixture with another compound) | – | > 100000 nM | – | > 100000 nM | – | > 100000 nM | – | > 100000 nM | – | > 100000 nM | – | > 100000 nM | – | > 100000 nM | – | > 100000 nM | – | > 100000 nM | – | > 100000 nM
O=C(CCCC(=O)N/N=C/c1cc(Cl)ccc1O)N/N=C\c1cc(Cl)ccc1O | 3590 nM | > 100000 nM | 55000 nM | > 100000 nM | 6750 nM | > 100000 nM | 21200 nM | > 100000 nM | 6870 nM | > 100000 nM | 11900 nM | > 100000 nM | 2940 nM | > 100000 nM | 1250 nM | > 100000 nM | 5950 nM | > 100000 nM | – | –
